Assay results reported in the NIST ThermoML archive (doi:10.1016/j.jct.2013.09.010).
Where “and” joins values, the source holds several entries; their conditions need not be identical. Equal values may be shown once.

How the values were obtained:
[1] = Liquid, Vibrating tube method
[2] = molar heat capacity at constant pressure; details: 101 kPa, Liquid, Small sample (50 mg) DSC

CCCCC(=O)[O-].C[NH2+]CCO [2-hydroxy-N-methylethanaminium pentanoate]
mass density [kg/m3], [1]
Details | 298.15 K | 308.15 K | 318.15 K | 328.15 K | 338.15 K | 348.15 K | 358.15 K
100 kPa | 1009.33 | 1002.78 | 996.28 | 989.85 | 983.48 | 977.17 | 970.92
5000 kPa | 1011.62 | 1005.23 | 998.89 | 992.6 | 986.35 | 980.15 | 974
10000 kPa | 1014.08 | 1007.73 | 1001.45 | 995.24 | 989.11 | 983.05 | 977.05
15000 kPa | 1016.41 | 1010.14 | 1003.96 | 997.85 | 991.83 | 985.88 | 980.01
20000 kPa | 1018.67 | 1012.49 | 1006.39 | 1000.37 | 994.43 | 988.57 | 982.79
25000 kPa | 1020.85 | 1014.74 | 1008.72 | 1002.79 | 996.97 | 991.23 | 985.59

[2]
Details | molar heat capacity at constant pressure
283.15 K | 384.8 J/K/mol
287.15 K | 396.1 J/K/mol and 394.2 J/K/mol
288.15 K | 395.6 J/K/mol [middle of 5 runs]
289.15 K | 396 J/K/mol [middle of 4 runs]
290.15 K | 396.8 J/K/mol [middle of 4 runs]
291.15 K | 397.4 J/K/mol [middle of 4 runs]
292.15 K | 397.9 J/K/mol [middle of 4 runs]
293.15 K | 397.7 J/K/mol [middle of 5 runs]
294.15 K | 398.4 J/K/mol [middle of 4 runs]
295.15 K | 399 J/K/mol [middle of 4 runs]
296.15 K | 399.3 J/K/mol and 397.9 J/K/mol and 400.7 J/K/mol
297.15 K | 400 J/K/mol [middle of 4 runs]
298.15 K | 400.6 J/K/mol [middle of 4 runs]
299.15 K | 402.3 J/K/mol and 401.1 J/K/mol and 399.5 J/K/mol
300.15 K | 401.8 J/K/mol [middle of 4 runs]
301.15 K | 402.3 J/K/mol [middle of 4 runs]
302.15 K | 402.7 J/K/mol [middle of 4 runs]
303.15 K | 402.3 J/K/mol [middle of 5 runs]
304.15 K | 403.2 J/K/mol [middle of 4 runs]
305.15 K | 403.6 J/K/mol [middle of 4 runs]
306.15 K | 405 J/K/mol and 403 J/K/mol and 402.3 J/K/mol
307.15 K | 402.7 J/K/mol
308.15 K | 401.6 J/K/mol and 403 J/K/mol
309.15 K | 403.4 J/K/mol
310.15 K | 403.8 J/K/mol
311.15 K | 404.3 J/K/mol
312.15 K | 404.6 J/K/mol
313.15 K | 405 J/K/mol and 405.2 J/K/mol
314.15 K | 405.5 J/K/mol
315.15 K | 405.7 J/K/mol
316.15 K | 406.1 J/K/mol
317.15 K | 406.1 J/K/mol
318.15 K | 408.9 J/K/mol and 406.4 J/K/mol
319.15 K | 406.8 J/K/mol
320.15 K | 407.1 J/K/mol
321.15 K | 407.5 J/K/mol
322.15 K | 407.8 J/K/mol
323.15 K | 412.8 J/K/mol and 408.2 J/K/mol
324.15 K | 408.5 J/K/mol
325.15 K | 408.9 J/K/mol
328.15 K | 416.7 J/K/mol
333.15 K | 420.6 J/K/mol

CCC(=O)[O-].C[NH2+]CCO [2-hydroxy-N-methylethanaminium propionate]
mass density [kg/m3], [1]
Details | 100 kPa | 2000 kPa | 3000 kPa | 5000 kPa | 10000 kPa | 15000 kPa | 20000 kPa | 25000 kPa
298.15 K | 1065.75 | 1066.51 | 1066.95 | 1067.8 | 1069.86 | 1071.89 | 1073.87 | 1075.79
303.15 K | 1062.59 | 1063.37 | 1063.82 | 1064.69 | 1066.79 | 1068.87 | 1070.88 | 1072.86
308.15 K | 1059.41 | 1060.21 | 1060.67 | 1061.55 | 1063.7 | 1065.82 | 1067.88 | 1069.9
313.15 K | 1056.21 | 1057.03 | 1057.51 | 1058.4 | 1060.6 | 1062.76 | 1064.86 | 1066.92
318.15 K | 1052.99 | 1053.83 | 1054.32 | 1055.23 | 1057.47 | 1059.68 | 1061.82 | 1063.93
323.15 K | 1049.76 | 1050.61 | 1051.11 | 1052.04 | 1054.32 | 1056.58 | 1058.76 | 1060.91
328.15 K | 1046.5 | 1047.37 | 1047.89 | 1048.84 | 1051.16 | 1053.47 | 1055.68 | 1057.87
333.15 K | 1043.23 | 1044.11 | 1044.64 | 1045.61 | 1047.97 | 1050.33 | 1052.59 | 1054.82
338.15 K | 1039.93 | 1040.84 | 1041.38 | 1042.36 | 1044.77 | 1047.17 | 1049.47 | 1051.74
343.15 K | 1036.62 | 1037.54 | 1038.1 | 1039.1 | 1041.55 | 1043.99 | 1046.33 | 1048.65
348.15 K | 1033.29 | 1034.23 | 1034.8 | 1035.81 | 1038.3 | 1040.8 | 1043.17 | 1045.54
353.15 K | 1029.94 | 1030.9 | 1031.48 | 1032.51 | 1035.04 | 1037.58 | 1040 | 1042.4
358.15 K | 1026.57 | 1027.55 | 1028.14 | 1029.19 | 1031.76 | 1034.35 | 1036.8 | 1039.25

[2]
Details | molar heat capacity at constant pressure
287.15 K | 322.8 J/K/mol
288.15 K | 324.3 J/K/mol and 323.1 J/K/mol and 322.8 J/K/mol
289.15 K | 324.5 J/K/mol [middle of 4 runs]
290.15 K | 324.8 J/K/mol [middle of 5 runs]
291.15 K | 324.9 J/K/mol [middle of 5 runs]
292.15 K | 325.7 J/K/mol [middle of 5 runs]
293.15 K | 326.1 J/K/mol [middle of 5 runs]
294.15 K | 326.6 J/K/mol [middle of 4 runs]
295.15 K | 327 J/K/mol [middle of 4 runs]
296.15 K | 327.2 J/K/mol [middle of 4 runs]
297.15 K | 327.5 J/K/mol [middle of 5 runs]
298.15 K | 327.9 J/K/mol [middle of 4 runs]
299.15 K | 328.2 J/K/mol [middle of 5 runs]
300.15 K | 328.7 J/K/mol [middle of 5 runs]
301.15 K | 329.1 J/K/mol [middle of 5 runs]
302.15 K | 329.4 J/K/mol [middle of 5 runs]
303.15 K | 329.7 J/K/mol [middle of 5 runs]
304.15 K | 329.9 J/K/mol [middle of 4 runs]
305.15 K | 330 J/K/mol [middle of 4 runs]
306.15 K | 330.7 J/K/mol and 330.2 J/K/mol and 329.6 J/K/mol
307.15 K | 329.9 J/K/mol
308.15 K | 330.2 J/K/mol
309.15 K | 330.5 J/K/mol
310.15 K | 330.9 J/K/mol
311.15 K | 331.2 J/K/mol
312.15 K | 331.6 J/K/mol
313.15 K | 332.1 J/K/mol
314.15 K | 332.4 J/K/mol
315.15 K | 332.7 J/K/mol
316.15 K | 332.8 J/K/mol
317.15 K | 333 J/K/mol
318.15 K | 333.1 J/K/mol
319.15 K | 333.4 J/K/mol
320.15 K | 333.6 J/K/mol
321.15 K | 333.9 J/K/mol
322.15 K | 334 J/K/mol
323.15 K | 334.5 J/K/mol
324.15 K | 334.9 J/K/mol
325.15 K | 335.4 J/K/mol
326.15 K | 335.8 J/K/mol

CCCC(=O)[O-].C[NH2+]CCO [N-methyl-2-hydroxyethylammonium butanoate]
mass density [kg/m3], [1]
Details | 298.15 K | 308.15 K | 318.15 K | 328.15 K | 338.15 K | 348.15 K | 358.15 K
100 kPa | 1035.29 | 1028.57 | 1021.88 | 1015.21 | 1008.57 | 1001.95 | 995.35
5000 kPa | 1037.49 | 1030.87 | 1024.28 | 1017.71 | 1011.17 | 1004.66 | 998.16
10000 kPa | 1039.66 | 1033.14 | 1026.66 | 1020.2 | 1013.77 | 1007.36 | 1000.98
15000 kPa | 1041.88 | 1035.43 | 1029.02 | 1022.64 | 1016.3 | 1010 | 1003.73
20000 kPa | 1043.97 | 1037.61 | 1031.28 | 1024.99 | 1018.73 | 1012.5 | 1006.31
25000 kPa | 1046.02 | 1039.73 | 1033.49 | 1027.31 | 1021.17 | 1015.08 | 1009.04

[2]
Details | molar heat capacity at constant pressure
286.15 K | 357.3 J/K/mol
287.15 K | 358.4 J/K/mol
288.15 K | 357 J/K/mol
290.15 K | 358.9 J/K/mol
291.15 K | 360.7 J/K/mol
292.15 K | 356.8 J/K/mol
293.15 K | 358.6 J/K/mol
294.15 K | 361 J/K/mol and 360.1 J/K/mol
295.15 K | 358.1 J/K/mol and 360.9 J/K/mol
296.15 K | 361.7 J/K/mol and 357.1 J/K/mol
297.15 K | 362.7 J/K/mol and 358.9 J/K/mol
298.15 K | 363.2 J/K/mol and 359.6 J/K/mol
299.15 K | 364 J/K/mol and 360.7 J/K/mol
300.15 K | 364.6 J/K/mol and 361.2 J/K/mol
301.15 K | 361.7 J/K/mol and 365.3 J/K/mol
302.15 K | 362.2 J/K/mol and 365.8 J/K/mol
303.15 K | 362.3 J/K/mol and 366.4 J/K/mol
304.15 K | 362.8 J/K/mol and 367.1 J/K/mol
305.15 K | 363.3 J/K/mol and 367.6 J/K/mol
306.15 K | 363.8 J/K/mol and 368 J/K/mol
307.15 K | 364.3 J/K/mol and 368.5 J/K/mol
308.15 K | 364.8 J/K/mol and 368.9 J/K/mol
309.15 K | 364.9 J/K/mol and 369.4 J/K/mol
310.15 K | 365.4 J/K/mol and 369.7 J/K/mol
311.15 K | 365.8 J/K/mol and 370.3 J/K/mol
312.15 K | 366.4 J/K/mol and 370.8 J/K/mol
313.15 K | 367.2 J/K/mol and 371.5 J/K/mol
314.15 K | 368 J/K/mol and 372.1 J/K/mol
315.15 K | 368.7 J/K/mol and 372.8 J/K/mol
316.15 K | 369.2 J/K/mol and 373.6 J/K/mol
317.15 K | 369.5 J/K/mol and 374.3 J/K/mol
318.15 K | 369.7 J/K/mol and 374.7 J/K/mol
319.15 K | 370 J/K/mol and 375.4 J/K/mol
320.15 K | 370.2 J/K/mol and 375.7 J/K/mol
321.15 K | 370.7 J/K/mol and 376.2 J/K/mol
322.15 K | 371.2 J/K/mol and 376.9 J/K/mol
323.15 K | 371.5 J/K/mol and 377.5 J/K/mol
324.15 K | 372.1 J/K/mol and 378.2 J/K/mol
325.15 K | 372.8 J/K/mol and 378.7 J/K/mol
326.15 K | 373.8 J/K/mol and 379.3 J/K/mol
327.15 K | 374.7 J/K/mol and 380.1 J/K/mol
328.15 K | 375.4 J/K/mol and 380.6 J/K/mol
329.15 K | 375.7 J/K/mol and 381.3 J/K/mol
330.15 K | 375.6 J/K/mol and 381.8 J/K/mol
331.15 K | 375.4 J/K/mol and 382.1 J/K/mol
332.15 K | 375.2 J/K/mol and 382.9 J/K/mol
333.15 K | 374.9 J/K/mol and 383.1 J/K/mol
334.15 K | 375.2 J/K/mol and 383.9 J/K/mol
335.15 K | 375.7 J/K/mol and 384.7 J/K/mol
336.15 K | 377.2 J/K/mol
